Test results reported in patent US12721832B2, “Anti-senescence plant polyphenol drug downregulating senescence-related secretory phenotype and use thereof” (BYHEALTH CO., LTD., priority 2021, dated 2026).

Key:
PSC27 cells [1] = assay: Population doubling test of PSC27; assay type: cell-based, human
Description: The cells were damaged by BLEO at passage 10 (p10), and then PCC1 was added to the medium at day 8. The effect of PCC1 on cell proliferation potential is determined by comparative analysis of the population doubling (PD) of CTRL group, BLEO group, PCC1 group and BLEO/PCC1 group. ^, P>0.05; ***, P<0.001.

PSC27 cells [2] = assay: Flow cytometry of apoptosis of PSC27; assay type: cell-based, human
Text: Q2, distribution area of early apoptotic cells; Q3, distribution area of late apoptotic cells.

[3] = system: cancer cells in the lesion; assay: DNA damage and apoptosis in tumor lesions (LCM, caspase 3 cleavage IHC); assay type: in vivo, mice
Text: The signals of Caspase 3 cleaved […] in the lesion of each group of mice were in sharp contrast. Scale bar, 200 μm.
To investigate mechanisms directly supporting this senescence-associated pattern with expression and reversal of SASP in MIT-administered mice, we dissected tumors in animals treated with both drugs 7 days after the first PCC1 administration, and the time point of 7 days after administration was selected mainly because drug-resistant clones had not yet formed in cancer cells in the lesion at this time. […] As supporting evidence, when PCC1 was applied during treatment, caspase 3 cleavage activity was increased, which was a typical hallmark of apoptosis (FIG. 29).

SASP factors = assay: LCM and qRT-PCR of SASP factors in mouse lesions; assay type: in vivo, mice; settings: MIT/PCC1 vs MIT, stromal cells
Description: The stromal cells and cancer cells were specifically separated by LCM technology, total RNA was prepared and used for SASP expression detection. A P>0.05; *, P<0.05; **, P<0.01; ***, P<0.001.
In a preclinical treatment trial, subcutaneously transplanted mice were fed with a standard experimental diet, after 2 weeks chemotherapy drugs mitoxantrone (MIT, dose: 0.2 mg/kg) and/or procyanidin C1 (PCC1) (500 μl, dose: 10 mg/kg) via intraperitoneal administration. The time points were: the former was administrated on the first day of the 3rd, 5th and 7th weeks, and the latter was administrated on the first day of the 5th and 7th weeks. A total of 3 cycles of MIT administration were carried out throughout the course of treatment, and each cycle lasted for 2 weeks. After the course of treatment, mouse tumors were harvested for volume measurement and histological analysis. Each mouse cumulatively received 0.6 mg/kg body weight of MIT and 30 mg/kg body weight of PCC1. In order to cause systemic expression of SASP factor induced by chemotherapy, MIT was administered to mice through intravenous infusion according to the above steps and sequence, but the dose was reduced to 0.1 mg/kg body weight/each time (the cumulative dose of MIT received in the whole course of treatment was 0.3 mg/kg body weight) to reduce drug-related toxicity. […]

aged C57BL/6 mice = assay: Physical ability test in aged mice; assay type: in vivo; settings: males and females, PCC1 biweekly
Description: N=5. ^, P>0.05; **, P<0.01.
N=5/group. , P>0.05; ***, P<0.001.
All testing began on day 5 after the last placebo or drug treatment. Maximum walking speed was assessed using the accelerated RotaRod System (TSE System, Chesterfiled, Mo.). The mice were trained on the RotaRod for 3 days at speeds of 4, 6 and 8 r.p.m, lasted for 200 seconds on the 1st, 2nd and 3rd days. On the test day, the mice were placed on the RotaRod, and the test was performed starting at a speed of 4 r.p.m. The rotation speed was accelerated from 4 to 40 r.p.m at intervals of 5 minutes. When the mice fell off the RotaRod, the speed was recorded. The final results were averaged from 3 or 4 trials and normalized to baseline speed. […]
Forelimb grip strength (N) was measured using a Grip Strength Meter (Columbus Instruments, Columbus, Ohio), and the results were averaged from more than 10 trials. […] The mice were only allowed to grasp the wire with their forelimbs, and the hang time was normalized to body weight and expressed as hang duration (sec) x body weight (g). […] Their daily activity and food intake were monitored for 24 h (12 hours of light and 12 hours of dark) by a Comprehensive Laboratory Animal Monitoring System (CLAMS). […] The distance was recorded after the test, and the total work (KJ) was calculated with the following formula: mass (kg)×g (9.8 m/s^2)×distance (m)×sin) (5°).

senescent PSC27 cells = assay: Caspase 3/7 activity / drug-induced apoptosis in senescent cells; assay type: cell-based, human
Description: PSC27 cells gradually entered the senescent stage after being treated with BLEO for 12 hours under culture conditions. 50 μM PCC1 was added to the medium of senescent cells starting from day 7, NucLight Rapid Red reagent was used to label the cells, and caspase 3/7 reagent (IncuCyte) was used for apoptosis detection. Caspase 3/7 activity was detected every 4 hours (n=3).
Statistical differences are obtained by two-way ANOVA (Turkey' test).
PSC27 cells were plated in a 96-well dish, and the cells were induced to senescence under the treatment of 50 μg/mL BLEO. PCC1 and ABT263 were added at concentrations of 50 μM and 1.0 μM, respectively. Cell culture medium was supplemented with Incucyte Nuclight fast Red Reagent (Essen Bioscience) and Incucyte C-3/7 Apoptosis Reagent (Essen Bioscience). Representative field of view was selected to take pictures.

With `Oc1cc(O)c2c(c1)O[C@H](c1ccc(O)c(O)c1)[C@H](O)[C@H]2c1c(O)cc(O)c2c1O[C@H](c1ccc(O)c(O)c1)[C@H](O)[C@H]2c1c(O)cc(O)c2c1O[C@H](c1ccc(O)c(O)c1)[C@H](O)C2` [PCC1, procyanidin C1] the “population doubling (PD) ability” value (PSC27 cells [1]; BLEO and PCC1 combined treatment vs BLEO group) was “significantly increased”, the “effect on PD of proliferating cells” value (PSC27 cells [1]; PCC1 alone, proliferating cells) was “did not appear to affect” and the “change of proliferating cells” value (PSC27 cells [2]) was “not obvious”. For the same compound, the “proportion of apoptosis in senescent PSC27 cells” value (PSC27 cells [2]) was “significantly increased”, the “viability of senescent PSC27 cells” value (PSC27 cells [2]) was “significantly reduced” and the “indices of DNA damage or apoptosis” value ([3]; PCC1 administered to MIT-treated animals) was “significantly enhanced”. For the same compound, the “caspase 3 cleavage activity” value ([3]; PCC1 applied during MIT treatment) was “increased”, the “degree of DNA damage and apoptosis” value ([3]; single agent vs placebo, 7 days after first PCC1 administration) was “could not induce DNA damage or cause apoptosis” and the “MIT-induced SASP expression change upon PCC1” value (SASP factors) was “largely reversed”. For the same compound, the “physical function during the last 2 months of life vs vehicle” value (aged C57BL/6 mice) was “did not show a significant decrease”, the “time after addition from which caspase-3/7 activity differs statistically between senescent and control group” value (senescent PSC27 cells; 50 μM PCC1) was 16 h and the “effect on proliferating cells (apoptosis)” value (senescent PSC27 cells; proliferating PSC27) was “basically not targeted or affected”.
